Laboratory results as given in US10954214B2 (Janssen Pharmaceutica NV, priority 2016, dated 2021).

Experiments:
[1] = target: full-length MALT1 protein (Strep-MALT1(1-824)-His) (Homo sapiens (Human), UniProt Q9UDY8); test: MALT1 Biochemical Protease Assay (Ac-LRSR-AMC substrate); conditions: 10 nM FL MALT1, 200 μM Ac-LRSR-AMC, 4 h at RT; read-out: MALT1_Biochemical activity (Ac-LRSR-amc) IC50
Procedure, shortened: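 Fluorescence from AMC release off the quenched LRSR substrate was read after a 4 h reaction at RT. Values were normalised to no-enzyme and uninhibited controls and fitted for IC50 and Hill coefficient.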

[2] = tested on: IL6 secretion by OCI-LY3 ABC-DLBCL cells; test: Human IL6 Mesoscale assay (OCI-LY3); format: cell-based; conditions: Homo sapiens, 24 h
Procedure: (§1) NFKB signaling regulates the secretion of multiple cytokines, including IL6 and IL10. Secretion of the cytokines IL6 and IL10 by TMD8 or OCI-LY3 ABC-DLBCL cells was measured using a mesoscale assay. Inhibition of NFKB signaling by MALT1 or BTK inhibitors results in a decrease of IL6/10 secretion.
(§2) TMD8 or OCI-LY3 cells were propagated in RPMI-1640 (Sigma Aldrich) supplemented with 10% fetal bovine serum (HyClone), 1 mM sodium pyruvate (Invitrogen), 2 mM L-glutamine (Sigma Aldrich) and 1% PenStrep (Sigma Aldrich). Cell passage number should not exceed 30. Cells should be kept between 0.5-2.5 million cells per mL during culturing and cells should be supplemented every 2-3 days with fresh 50 μM beta-mercaptoenthanol. No beta-mercaptoethanol was used during the mesoscale assay.
(§3) For the Mesoscale assay, 100,000 TMD8 or OCI-LY3 cells were seeded per well into black-colored 96-well plates with clear bottom (Corning #3904) and test compounds were added in 9 dilution steps (1:2) ranging from 15 μM to 58.6 nM (final DMSO concentration 0.3%). DMSO control wells were used to determine the maximum signal (High Control (HC)). Treatment with the BTK inhibitor RN486 in a dose range from 30 nM to 131 pM (9 dilutions of 1:2) served as a positive control for NFKB pathway inhibition and was used to determine the maximum inhibition (Low Control (LC)). Compounds and cells were incubated for 24 h at 37° C. and 5% CO2 (assay volume is 150 μL). After 24 h of incubation 50 μL of the supernatant was transferred to a MSD plate (V-Plex Proinflammation Panel 1 (human) kit, Mesoscale (MSD)) and incubated for 2 h with vigorous shaking (600 rpm) at room temperature. Following incubation, plates were washed 3× with PBS+0.05% Tween-20 and 25 μL detection antibody solution (IL6 & IL10 antibodies in diluent 3 (MSD)) was added per well followed by 2 h of incubation with vigorous shaking (600 rpm) at room temperature. After 3× washes with PBS+0.05% Tween-20, plates were incubated with 150 μL 2× Read Buffer T and read on SECTOR imager.

[3] = tested on: IL10 secretion by OCI-LY3 ABC-DLBCL cells; test: Human IL10 Mesoscale assay (OCI-LY3); format: cell-based; conditions: Homo sapiens, 24 h
Procedure: as §1, §2, §3

full-length MALT1 protein (Strep-MALT1(1-824)-His), sequence (Q9UDY8 whole entry): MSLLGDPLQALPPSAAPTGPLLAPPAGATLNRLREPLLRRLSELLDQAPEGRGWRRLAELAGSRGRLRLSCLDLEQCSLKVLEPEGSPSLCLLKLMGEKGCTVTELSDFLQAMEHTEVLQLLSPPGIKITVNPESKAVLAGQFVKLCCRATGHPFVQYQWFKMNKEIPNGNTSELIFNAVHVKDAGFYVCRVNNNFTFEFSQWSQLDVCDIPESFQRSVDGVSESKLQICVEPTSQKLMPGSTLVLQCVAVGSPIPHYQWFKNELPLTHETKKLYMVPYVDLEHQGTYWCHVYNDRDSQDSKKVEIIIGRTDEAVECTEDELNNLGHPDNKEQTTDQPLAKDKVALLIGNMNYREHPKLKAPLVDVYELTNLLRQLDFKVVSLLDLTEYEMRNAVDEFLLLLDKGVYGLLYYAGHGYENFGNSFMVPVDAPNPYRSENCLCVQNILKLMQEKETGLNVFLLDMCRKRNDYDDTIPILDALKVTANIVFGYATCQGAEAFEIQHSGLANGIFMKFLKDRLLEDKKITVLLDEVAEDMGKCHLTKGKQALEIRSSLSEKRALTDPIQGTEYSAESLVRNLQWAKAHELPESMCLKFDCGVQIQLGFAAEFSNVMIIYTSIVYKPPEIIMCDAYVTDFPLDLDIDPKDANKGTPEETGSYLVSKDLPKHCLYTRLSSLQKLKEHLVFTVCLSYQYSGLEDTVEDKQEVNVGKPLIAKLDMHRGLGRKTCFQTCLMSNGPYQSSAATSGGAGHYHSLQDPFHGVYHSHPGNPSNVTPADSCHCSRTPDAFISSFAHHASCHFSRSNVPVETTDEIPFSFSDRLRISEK

SMILES | IC50 [1] [nM] | IC50 [2] [nM] | IC50 [3] [nM]
COC(=O)c1cnn(-c2ccc(NC(=O)c3cnn(-c4cccc5ncccc45)c3C(F)(F)F)cc2Cl)n1 [Cpd 256, methyl 2-(2-chloro-4-(1-(quinolin-5-yl)-5-(trifluoromethyl)-1H-pyrazole-4-carboxamido)phenyl)-2H-1,2,3-triazole-4-carboxylate] | 240 | 257 | 240
Cn1ccc(-c2ncc(NC(=O)c3cnn(-c4ccc(F)c5ncccc45)c3C(F)(F)F)cc2Cl)n1 [Cpd 273, N-(5-chloro-6-(1-methyl-1H-pyrazol-3-yl)pyridin-3-yl)-1-(8-fluoroquinolin-5-yl)-5-(trifluoromethyl)-1H-pyrazole-4-carboxamide] | 145 | 85 | 66
COc1ncc(NC(=O)c2cnn(-c3cccc4c(=O)[nH]ccc34)c2C(F)(F)F)cc1Cl [Cpd 345, N-(5-chloro-6-methoxypyridin-3-yl)-1-(1-oxo-1,2-dihydroisoquinolin-5-yl)-5-(trifluoromethyl)-1H-pyrazole-4-carboxamide] | 93 | 79 | 58
Cc1cc(NC(=O)c2cnn(-c3cccc4scnc34)c2C(F)(F)F)c(C)nc1-n1nccn1 [Cpd 300, 1-(benzo[d]thiazol-4-yl)-N-(2,5-dimethyl-6-(2H-1,2,3-triazol-2-yl)pyridin-3-yl)-5-(trifluoromethyl)-1H-pyrazole-4-carboxamide] | 4170 | 525 | 339
N#Cc1cncc(NC(=O)c2cnn(-c3cccc4c(=O)[nH]ccc34)c2C(F)(F)F)c1 [Cpd 346, N-(5-cyanopyridin-3-yl)-1-(1-oxo-1,2-dihydroisoquinolin-5-yl)-5-(trifluoromethyl)-1H-pyrazole-4-carboxamide] | 275 | 457 | 224
CCc1cc(NC(=O)c2cnn(-c3cccc4nccn34)c2C(F)(F)F)c(CC)nc1-n1nccn1 [Cpd 196, N-(2,5-diethyl-6-(2H-1,2,3-triazol-2-yl)pyridin-3-yl)-1-(imidazo[1,2-a]pyridin-5-yl)-5-(trifluoromethyl)-1H-pyrazole-4-carboxamide] | 3160 | 83 | 41
Cc1cnn(-c2nc(C)c(NC(=O)c3cnn(-c4cccc5c(=O)[nH]ccc45)c3C(F)(F)F)cc2Cl)n1 [Cpd 359, N-(5-chloro-2-methyl-6-(4-methyl-2H-1,2,3-triazol-2-yl)pyridin-3-yl)-1-(1-oxo-1,2-dihydroisoquinolin-5-yl)-5-(trifluoromethyl)-1H-pyrazole-4-carboxamide] | 28 | 98 | 91
O=C(Nc1ccnc(C(F)(F)F)c1)c1cnn(-c2cncc3c(F)cccc23)c1C(F)(F)F [Cpd 320, 1-(8-fluoroisoquinolin-4-yl)-5-(trifluoromethyl)-N-(2-(trifluoromethyl)pyridin-4-yl)-1H-pyrazole-4-carboxamide] | 69 | 182 | 93
Cc1cc(NC(=O)c2cnn(-c3cccc4c(=O)[nH]ccc34)c2C(F)(F)F)ccn1 [Cpd 347, N-(2-methylpyridin-4-yl)-1-(1-oxo-1,2-dihydroisoquinolin-5-yl)-5-(trifluoromethyl)-1H-pyrazole-4-carboxamide] | 933 | 43 | 31
C[C@H](O)c1nccc2c(-n3ncc(C(=O)Nc4cnc(-n5nccn5)c(Cl)c4)c3C(F)(F)F)cccc12 (single isomer, unassigned) [Cpd 445, (*S)—N-(5-chloro-6-(2H-1,2,3-triazol-2-yl)pyridin-3-yl)-1-(1-(1-hydroxyethyl)isoquinolin-5-yl)-5-(trifluoromethyl)-1H-pyrazole-4-carboxamide] | 79 | 186 | 93
N#Cc1cc(NC(=O)c2cnn(-c3cccc4c(=O)[nH]ccc34)c2C(F)(F)F)ccn1 [Cpd 356, N-(2-cyanopyridin-4-yl)-1-(1-oxo-1,2-dihydroisoquinolin-5-yl)-5-(trifluoromethyl)-1H-pyrazole-4-carboxamide] | 123 | 295 | 209
